In brackets after ≈: the same amount, converted by molar mass.

The test system of the assay is P388. As to the kind of experiment: Cytotoxicity against mouse P388 cells. Format: functional. Particulars: read-out: ED50 (the source's name).
Take `COc1cc2cc(Oc3ccc4ccc(=O)oc4c3)c(=O)oc2cc1O` [DAPHNORETIN]: the EC50 is 3.4 µg/mL (≈ 9.65 µM). For `COc1cc(C[C@@H]2CO[C@@H](c3cc(OC)c(O)c(OC)c3)[C@@H]2CO)ccc1O` (racemic), the EC50 stood at 0.33 µg/mL (≈ 0.845 µM). Turning to `O=c1ccc2ccc(O)cc2o1` [UMBELLIFERONE], the EC50 was found to be 3.1 µg/mL (≈ 19.1 µM). For `COc1cc([C@H]2OC[C@H]3[C@@H]2CO[C@@H]3c2cc(OC)c(O)c(OC)c2)cc(OC)c1O` (racemic) [SYRINGARESINOL], the EC50 is 0.56 µg/mL (≈ 1.34 µM).

`COc1cc(C[C@H]2CO[C@H](c3ccc(O)c(OC)c3)[C@H]2CO)ccc1O` (racemic) [LARICIRESINOL]: the EC50 came out at 0.38 µg/mL (≈ 1.05 µM).
